Measured values as given in patent publication US10294202B2, “Pyrrolidinones as herbicides” (FMC Corporation, priority 2013, dated 2019).

Assays:
nutsedge, yellow = assay: Test C pre-/postemergence herbicide test; type: in vivo, Cyperus esculentus
Outline: (§1)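 Plants grown and held in a greenhouse for 13 to 15 days post-spray, then rated 0–100 by visual comparison with controls. Pre treatments targeted seeds in loam and sand; post treatments targeted 1- to 4-leaf plants in peat-based potting medium.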

sedge, umbrella = assay: Test B flooded paddy test; type: in vivo, Cyperus difformis; settings: 500 g ai/ha, Flood; scale of 0 to 100 where 0 is no effect and 100 is complete control
Outline: (§2)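 Scored visually 0–100 (0 no effect, 100 complete control) versus controls after 13 to 15 greenhouse days. Treatment: compound added to paddy water kept 3 cm above soil, on 2-leaf-stage plants.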

giant foxtail = assay: Test A pre-/postemergence herbicide test; type: in vivo, Setaria faberii; settings: for Plant response rating, Foxtail, Giant: 0 to 100 scale
Outline: (§3)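 Approximately 10 days after treatment in the greenhouse, plants were compared with untreated controls and given a 0–100 visual injury rating. Applications: preemergence directed soil spray; postemergence on 2–10 cm plants at the one- to two-leaf stage.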

lambsquarters = assay: Test C pre-/postemergence herbicide test; type: in vivo, Chenopodium album
Outline: as §1

velvetleaf = assay: Test C pre-/postemergence herbicide test; type: in vivo, Abutilon theophrasti
Outline: as §1

corn = assay: Test A pre-/postemergence herbicide test; type: in vivo, Zea mays; settings: Postemergence
Outline: as §3

foxtail, giant = assay: Test C pre-/postemergence herbicide test; type: in vivo, Setaria faberii
Outline: as §1

rice = assay: Test B flooded paddy test; type: in vivo, Oryza sativa; settings: 500 g ai/ha, Flood; scale of 0 to 100 where 0 is no effect and 100 is complete control
Outline: as §2

morningglory = assay: Test C pre-/postemergence herbicide test; type: in vivo, Ipomoea coccinea
Outline: as §1

barnyardgrass = assay: Test A pre-/postemergence herbicide test; type: in vivo, Echinochloa crus-galli
Outline: as §3

wheat (winter wheat) = assay: Test C pre-/postemergence herbicide test; type: in vivo, Triticum aestivum
Outline: as §1

[1] = Postemergence, 31 g ai/ha, scale 0 to 100 (0 no effect, 100 complete control)
[2] = Postemergence, 62 g ai/ha, scale 0 (no effect) to 100 (complete control)
[3] = Postemergence, 125 g ai/ha, scale 0 to 100 (0 no effect, 100 complete control)
[4] = Postemergence, 250 g ai/ha, scale 0 to 100 (0 no effect, 100 complete control)
[5] = Preemergence, 31 g ai/ha, scale 0 to 100, 0 is no effect and 100 is complete control
[6] = Preemergence, 62 g ai/ha, scale 0 to 100
[7] = Preemergence, 125 g ai/ha, scale 0 to 100 (0 no effect, 100 complete control)
[8] = 125 g ai/ha, visual rating, 0 no effect, 100 complete control, approximately 10 days, preemergence
[9] = 125 g ai/ha, visual rating, 0 to 100 scale, 0 no effect, 100 complete control, approximately 10 days, preemergence
[10] = Preemergence, 62 g ai/ha, scale 0 to 100 (0 no effect, 100 complete control)

O=C1NCC(c2ccc(F)cc2)C1C(=O)Nc1ccc(F)c(F)c1F (racemic) [Compound 120]
Plant response rating, Nutsedge, Yellow (nutsedge, yellow; [1]): 0 | Plant response rating, Nutsedge, Yellow (nutsedge, yellow; [2]): 0 | Plant response rating, Nutsedge, Yellow (nutsedge, yellow; [3]): 0 | Plant response rating, Nutsedge, Yellow (nutsedge, yellow; [4]): 0 | Nutsedge, Yellow plant response rating (nutsedge, yellow; [5]): 0 | Plant response rating, Nutsedge, Yellow (nutsedge, yellow; [6]): 0 | Plant response rating, Nutsedge, Yellow (nutsedge, yellow; [7]): 0 | Plant response rating (scale of 0 to 100), Nutsedge, Yellow (nutsedge, yellow; Preemergence, 250 g ai/ha): 0 | Plant response rating, Sedge, Umbrella (sedge, umbrella): 0 | Plant response rating, Foxtail, Giant (giant foxtail; [8]): 90 | Plant response rating, Foxtail, Giant (giant foxtail; Postemergence, 125 g ai/ha, 0 no effect, 100 complete control): 80 | Foxtail, Giant plant response rating (0 to 100 scale, 0 is no effect, 100 is complete control) (giant foxtail; Postemergence, 500 g ai/ha): 90 | Plant response rating, Foxtail, Giant (giant foxtail; preemergence, 500 g ai/ha): 90 | Plant response rating, Lambsquarters (lambsquarters; [1]): 55 | Plant response rating, Lambsquarters (lambsquarters; [2]): 55 | Plant response rating, Lambsquarters (lambsquarters; [3]): 60 | Plant response rating, Lambsquarters (lambsquarters; [4]): 70 | Lambsquarters plant response rating (lambsquarters; [5]): 35 | Plant response rating, Lambsquarters (lambsquarters; [6]): 70 | Plant response rating, Lambsquarters (lambsquarters; [7]): 85 | Plant response rating (scale of 0 to 100), Lambsquarters (lambsquarters; Preemergence, 250 g ai/ha): 90 | Plant response rating, Velvetleaf (velvetleaf; [1]): 25 | Plant response rating, Velvetleaf (velvetleaf; [2]): 0 | Plant response rating, Velvetleaf (velvetleaf; [3]): 5 | Plant response rating, Velvetleaf (velvetleaf; [4]): 25 | Velvetleaf plant response rating (velvetleaf; [5]): 0 | Plant response rating, Velvetleaf (velvetleaf; [6]): 20 | Plant response rating, Velvetleaf (velvetleaf; [7]): 35 | Plant response rating (scale of 0 to 100), Velvetleaf (velvetleaf; Preemergence, 250 g ai/ha): 40 | Plant response rating, Corn (corn; 125 g ai/ha, 0 to 100 scale, 0 no effect, 100 complete control): 20 | Plant response rating, Corn (corn; 500 g ai/ha, 0 to 100 scale (0 no effect, 100 complete control)): 80 | Plant response rating, Foxtail, Giant (foxtail, giant; [1]): 25 | Plant response rating, Foxtail, Giant (foxtail, giant; [2]): 65 | Plant response rating, Foxtail, Giant (foxtail, giant; [3]): 75 | Plant response rating, Foxtail, Giant (foxtail, giant; [4]): 85 | Foxtail, Giant plant response rating (foxtail, giant; [5]): 90 | Plant response rating, Foxtail, Giant (foxtail, giant; [6]): 95 | Plant response rating, Foxtail, Giant (foxtail, giant; [7]): 98 | Plant response rating (scale of 0 to 100), Foxtail, Giant (foxtail, giant; Preemergence, 250 g ai/ha): 98 | Plant response rating, Rice (rice): 20 | Plant response rating, Morningglory (morningglory; [1]): 0 | Plant response rating, Morningglory (morningglory; [2]): 5 | Plant response rating, Morningglory (morningglory; [3]): 0 | Plant response rating, Morningglory (morningglory; [4]): 5 | Morningglory plant response rating (morningglory; [5]): 0 | Plant response rating, Morningglory (morningglory; [6]): 0 | Plant response rating, Morningglory (morningglory; [7]): 35 | Plant response rating (scale of 0 to 100), Morningglory (morningglory; Preemergence, 250 g ai/ha): 40 | Plant response rating, Barnyardgrass (barnyardgrass; [9]): 90 | Plant response rating, Barnyardgrass (barnyardgrass; Postemergence, 125 g ai/ha, 0 to 100 scale, 0 no effect, 100 complete control): 80 | Plant response rating, Barnyardgrass (barnyardgrass; Postemergence, 500 g ai/ha, 0 to 100 scale (0 no effect, 100 complete control)): 90 | Plant response rating, Barnyardgrass (barnyardgrass; preemergence, 500 g ai/ha, 0 to 100 scale (0 no effect, 100 complete control)): 90 | Plant response rating, Wheat (wheat (winter wheat); [1]): 0 | Plant response rating, Wheat (wheat (winter wheat); [2]): 0 | Plant response rating, Wheat (wheat (winter wheat); [3]): 0 | Plant response rating, Wheat (wheat (winter wheat); [4]): 0 | Wheat plant response rating (wheat (winter wheat); [5]): 10 | Plant response rating, Wheat (wheat (winter wheat); [6]): 35 | Plant response rating, Wheat (wheat (winter wheat); [7]): 30 | Plant response rating (scale of 0 to 100), Wheat (wheat (winter wheat); Preemergence, 250 g ai/ha): 85

O=C1NCC(c2ccc(C(F)(F)F)cc2)C1C(=O)Nc1cccc(F)c1F (racemic) [Compound 202]
Plant response rating, Nutsedge, Yellow (nutsedge, yellow; [1]): 0 | Plant response rating, Nutsedge, Yellow (nutsedge, yellow; [2]): 0 | Plant response rating, Nutsedge, Yellow (nutsedge, yellow; [3]): 0 | Plant response rating, Nutsedge, Yellow (nutsedge, yellow; [4]): 0 | Nutsedge, Yellow plant response rating (nutsedge, yellow; [5]): 0 | Nutsedge, Yellow plant response rating (nutsedge, yellow; [10]): 0 | Plant response rating, Nutsedge, Yellow (nutsedge, yellow; [7]): 0 | Plant response rating (scale of 0 to 100), Nutsedge, Yellow (nutsedge, yellow; Preemergence, 250 g ai/ha): 0 | Plant response rating, Sedge, Umbrella (sedge, umbrella): 0 | Plant response rating, Foxtail, Giant (giant foxtail; [8]): 90 | Plant response rating, Foxtail, Giant (giant foxtail; Postemergence, 125 g ai/ha, 0 is no effect, 100 is complete control): 90 | Foxtail, Giant plant response rating (0 to 100 scale, 0 is no effect, 100 is complete control) (giant foxtail; Postemergence, 500 g ai/ha): 90 | Plant response rating, Foxtail, Giant (giant foxtail; preemergence, 500 g ai/ha, 0 is no effect and 100 is complete control): 90 | Plant response rating, Lambsquarters (lambsquarters; [1]): 70 | Plant response rating, Lambsquarters (lambsquarters; [2]): 80 | Plant response rating, Lambsquarters (lambsquarters; [3]): 80 | Plant response rating, Lambsquarters (lambsquarters; [4]): 85 | Lambsquarters plant response rating (lambsquarters; [5]): 80 | Lambsquarters plant response rating (lambsquarters; [10]): 90 | Plant response rating, Lambsquarters (lambsquarters; [7]): 90 | Plant response rating (scale of 0 to 100), Lambsquarters (lambsquarters; Preemergence, 250 g ai/ha): 100 | Plant response rating, Velvetleaf (velvetleaf; [1]): 10 | Plant response rating, Velvetleaf (velvetleaf; [2]): 20 | Plant response rating, Velvetleaf (velvetleaf; [3]): 30 | Plant response rating, Velvetleaf (velvetleaf; [4]): 55 | Velvetleaf plant response rating (velvetleaf; [5]): 10 | Velvetleaf plant response rating (velvetleaf; [10]): 30 | Plant response rating, Velvetleaf (velvetleaf; [7]): 50 | Plant response rating (scale of 0 to 100), Velvetleaf (velvetleaf; Preemergence, 250 g ai/ha): 65 | Plant response rating, Corn (corn; 125 g ai/ha, 0 to 100 scale, 0 is no effect, 100 is complete control): 80 | Corn plant response rating (0 to 100 scale, 0 is no effect, 100 is complete control) (corn; 500 g ai/ha): 90 | Plant response rating, Foxtail, Giant (foxtail, giant; [1]): 5 | Plant response rating, Foxtail, Giant (foxtail, giant; [2]): 25 | Plant response rating, Foxtail, Giant (foxtail, giant; [3]): 70 | Plant response rating, Foxtail, Giant (foxtail, giant; [4]): 85 | Foxtail, Giant plant response rating (foxtail, giant; [5]): 90 | Foxtail, Giant plant response rating (foxtail, giant; [10]): 90 | Plant response rating, Foxtail, Giant (foxtail, giant; [7]): 95 | Plant response rating (scale of 0 to 100), Foxtail, Giant (foxtail, giant; Preemergence, 250 g ai/ha): 98 | Plant response rating, Rice (rice): 15 | Plant response rating, Morningglory (morningglory; [1]): 5 | Plant response rating, Morningglory (morningglory; [2]): 10 | Plant response rating, Morningglory (morningglory; [3]): 70 | Plant response rating, Morningglory (morningglory; [4]): 10 | Morningglory plant response rating (morningglory; [5]): 15 | Morningglory plant response rating (morningglory; [10]): 25 | Plant response rating, Morningglory (morningglory; [7]): 25 | Plant response rating (scale of 0 to 100), Morningglory (morningglory; Preemergence, 250 g ai/ha): 40 | Plant response rating, Barnyardgrass (barnyardgrass; [9]): 90 | Plant response rating, Barnyardgrass (barnyardgrass; Postemergence, 125 g ai/ha, 0 to 100 scale, 0 is no effect, 100 is complete control): 80 | Barnyardgrass plant response rating (0 to 100 scale, 0 is no effect, 100 is complete control) (barnyardgrass; Postemergence, 500 g ai/ha): 90 | Plant response rating, Barnyardgrass (barnyardgrass; preemergence, 500 g ai/ha, 0 to 100 scale, 0 is no effect and 100 is complete control): 90 | Plant response rating, Wheat (wheat (winter wheat); [1]): 0 | Plant response rating, Wheat (wheat (winter wheat); [2]): 0 | Plant response rating, Wheat (wheat (winter wheat); [3]): 0 | Plant response rating, Wheat (wheat (winter wheat); [4]): 5 | Wheat plant response rating (wheat (winter wheat); [5]): 0 | Wheat plant response rating (wheat (winter wheat); [10]): 30 | Plant response rating, Wheat (wheat (winter wheat); [7]): 55 | Plant response rating (scale of 0 to 100), Wheat (wheat (winter wheat); Preemergence, 250 g ai/ha): 60
